Results reported in PubChem BioAssay AID489034 (Sanford-Burnham Center for Chemical Genomics, 2010).
Calls of active or inactive are those of the source.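 The calls were made as follows: active = mean IC50 at or below a set limit; inactive = the rest.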

Tested on: 697 B-cell NF-kB luciferase reporter, PMA/ionomycin, 16 h
Assay: NF-kB reporter suppression in B cells – 697 B cells, PMA/ionomycin, luminescence, dose response (AID 489034)

Question: Which IC50 does the source give for C#CC(=O)N(c1cccc(OC)c1)C(C(=O)NC1CCCC1)c1cccs1 (stereo unspecified) here?
Answer: The IC50 was 219 nM.

Question: How did the IC50 turn out when COc1cc2c(cc1OC)[C@@H]1C(=O)c3ccc4c(c3O[C@@H]1CO2)C[C@H](C(C)C)O4 was run?
Answer: Its IC50 is > 80000 nM (inactive).

Question: CCCCCCn1ccc(=N)cc1 was tested. Which IC50 did it give?
Answer: Its IC50 is > 80000 nM (inactive).

Question: For C[C@@H]1C[C@@H]2O[C@H]2/C=C\C=C\C(=O)Cc2c(Cl)c(O)cc(O)c2C(=O)O1, which IC50 is on record?
Answer: Its IC50 is 275 nM.

Question: How did the IC50 turn out when Cc1ccc(Cn2ccsc2=NC(=O)CCl)cc1 was run?
Answer: Its IC50 is 489 nM.

Question: Which IC50 does the source give for Cn1nc(CC(=O)Nc2ccc3c(c2)CCC3)c2ccccc2c1=O here?
Answer: Its IC50 is > 80000 nM (inactive).

Question: How did the IC50 turn out when COc1ccc(CCNc2ncnc3sc(C)cc23)cc1OC was run?
Answer: The IC50 was 33400 nM (inactive).

Question: With CCOc1ccc(/C=C2\SC(=S)N(CCC(=O)O)C2=O)cc1 as the compound, how does the IC50 read?
Answer: Its IC50 is 211 nM.

Question: With Cn1nc(C(C)(C)C)cc1C(=O)NCc1ccc(N2CCCC2=O)cc1 as the compound, how does the IC50 read?
Answer: The IC50 was > 80000 nM (inactive).

Question: How did the IC50 turn out when CC(C)(C)c1ccc(C(=O)N2CCCCCC2=O)cc1 was run?
Answer: Its IC50 is 579 nM.

Question: For CCN(CC)S(=O)(=O)c1ccc(Oc2ccc(S(=O)(=O)N(CC)CC)cc2)cc1, which IC50 is on record?
Answer: Its IC50 is > 80000 nM (inactive).

Question: How did the IC50 turn out when CCn1c(C)cc(C(=O)COC(=O)c2ccccc2[N+](=O)[O-])c1C was run?
Answer: Its IC50 is under 160 nM.

Question: For CCCCCCCCCn1ccc(=N)cc1, which IC50 is on record?
Answer: Its IC50 is 46200 nM (inactive).

Question: How did the IC50 turn out when COc1ccc(/C=C/c2cc(-c3ccc(C)cc3)o[n+]2C)cc1 was run?
Answer: The IC50 was 5740 nM.

Question: C=C1C(=O)O[C@@H]2C[C@@H](C)[C@@H]3C=CC(=O)[C@@]3(C)[C@@H](OC(=O)CC(=O)O[C@H]3[C@@H]4C(=C)C(=O)O[C@@H]4C[C@@H](C)[C@@H]4C=CC(=O)[C@]43C)[C@H]12 was tested. Which IC50 did it give?
Answer: Its IC50 is 377 nM.

Question: Which IC50 does the source give for COc1ccc(C(=O)CN2C(=O)c3ccccc3S2(=O)=O)cc1 here?
Answer: Its IC50 is 691 nM.

Question: For COc1cc(CSc2nnnn2-c2ccc(C)cc2)cc(OC)c1OC, which IC50 is on record?
Answer: The IC50 was > 80000 nM (inactive).

Question: With Cc1ccc2nc(NC(=O)CCCC(=O)O)sc2c1 as the compound, how does the IC50 read?
Answer: The IC50 was 2130 nM.

Question: Which IC50 does the source give for COc1cccc2c1C(=O)c1c(O)c3c(c(O)c1C2=O)C[C@@](O)(C(=O)CO)C[C@@H]3O[C@H]1C[C@H](N)[C@@H](O)[C@H](C)O1 here?
Answer: Its IC50 is 3530 nM.

Question: CCCCCCCCNc1ncnc2ccccc12 was tested. Which IC50 did it give?
Answer: Its IC50 is > 80000 nM (inactive).

Question: How did the IC50 turn out when CC1CCCN(c2ccc([N+](=O)[O-])cc2C(=O)c2ccccc2)C1 (stereo unspecified) was run?
Answer: The IC50 was > 80000 nM (inactive).

Question: With C=CC(=O)Nc1ccc(Nc2nc(NC3CCC(N(C)C)CC3)nc3c2ncn3C(C)C)cc1 (stereo unspecified) as the compound, how does the IC50 read?
Answer: Its IC50 is 593 nM.

Question: How did the IC50 turn out when Cc1nn(C(C)(C)C)c(C)c1/C=N/OC(=O)Nc1ccc(Cl)cc1 was run?
Answer: The IC50 was under 160 nM.

Question: With CN(C(=O)OC(C)(C)C)c1ccc(-c2nc3ccccc3s2)cc1 as the compound, how does the IC50 read?
Answer: Its IC50 is under 160 nM.

Question: For O=C(/C=C/c1ccccc1)Nc1cccc(C(=O)O)c1, which IC50 is on record?
Answer: The IC50 was 620 nM.

Question: For O=C1/C(=C/c2ccccc2)C[C@@]2(O)[C@H]3Cc4ccc(O)c5c4[C@@]2(CCN3CC2CC2)C1O5 (stereo partly specified), which IC50 is on record?
Answer: Its IC50 is 6200 nM.

Question: Which IC50 does the source give for O=C(CSc1nnnn1C1CC2CCC1C2)Nc1ccnc2ccccc12 (stereo unspecified) here?
Answer: Its IC50 is > 80000 nM (inactive).

Question: For O=C(CN1C(=O)c2ccccc2S1(=O)=O)c1ccc2c(c1)OCCO2, which IC50 is on record?
Answer: The IC50 was under 160 nM.

Question: Which IC50 does the source give for CCC(C)(C)c1ccc(OCCCC[n+]2ccc(C)cc2)c(C(C)(C)CC)c1 here?
Answer: Its IC50 is 22300 nM (inactive).

Question: COCCn1c(C)cc(C2=NNC(=NC3CC3)SC2)c1C was tested. Which IC50 did it give?
Answer: The IC50 was under 160 nM.

Question: Which IC50 does the source give for Cc1ccc(C(=O)Nc2cccc(C(F)(F)F)c2)cc1NC(=O)c1ccno1 here?
Answer: The IC50 was 4090 nM.

Question: With COc1ccccc1C(=O)Nc1nc2ccccc2[nH]1 as the compound, how does the IC50 read?
Answer: The IC50 was 454 nM.

Question: For C#CC(=O)N(c1ccc(OC)c(OC)c1)C(C(=O)NC1CCCC1)c1cccs1 (stereo unspecified), which IC50 is on record?
Answer: Its IC50 is 200 nM.

Question: With Cc1ccnc(NC(=O)CCCOc2cc(=O)n(C)c3ccccc23)c1 as the compound, how does the IC50 read?
Answer: Its IC50 is 8540 nM.

Question: COC1=CC(=O)[C@]2(C=C1OC)OC[C@@H]1Oc3c(ccc4c3C=CC(C)(C)O4)C(=O)[C@@H]12 was tested. Which IC50 did it give?
Answer: Its IC50 is 47700 nM (inactive).

Question: O=C(Nc1nc(-c2ccc(F)c(F)c2)cs1)c1ccc(OCC2CCCO2)cc1 (stereo unspecified) was tested. Which IC50 did it give?
Answer: Its IC50 is > 80000 nM (inactive).

Question: How did the IC50 turn out when CC[n+]1c(C=C2C=C(C)OC(C)=C2)sc2ccccc21 was run?
Answer: The IC50 was > 80000 nM (inactive).

Question: How did the IC50 turn out when CC(=O)c1cn(Cc2ccccc2C#N)c2ccccc12 was run?
Answer: The IC50 was > 80000 nM (inactive).

Question: With C[C@@H]1O[C@@H](O[C@@H]2C=C3CC[C@@H]4C(CC[C@]5(C)[C@@H](c6ccc(=O)oc6)CC[C@]45O)[C@@]3(C)CC2)[C@H](O)[C@H](O)[C@H]1O (stereo partly specified) as the compound, how does the IC50 read?
Answer: The IC50 was under 160 nM.

Question: How did the IC50 turn out when CC1CCN(c2nc3ccc(C(=O)O)cc3s2)CC1 was run?
Answer: Its IC50 is 1330 nM.

Question: With O=C(Nc1ccc(Cl)cc1)Nc1cccc(C(=O)O)c1 as the compound, how does the IC50 read?
Answer: The IC50 was 2220 nM.

Question: With C=C1C(=O)O[C@@H]2C[C@@H](C)[C@@H]3C=CC(=O)[C@@]3(C)[C@@H](OC(C)=O)[C@H]12 as the compound, how does the IC50 read?
Answer: The IC50 was > 80000 nM (inactive).

Question: How did the IC50 turn out when CCCCCCCCn1ccc(=N)cc1 was run?
Answer: Its IC50 is > 80000 nM (inactive).

Question: How did the IC50 turn out when O=C(CCl)N=c1sccn1Cc1ccc(Cl)cc1Cl was run?
Answer: Its IC50 is under 160 nM.

Question: O=C(NCCc1ccccc1)c1ccc2c(c1)OCCCO2 was tested. Which IC50 did it give?
Answer: The IC50 was 366 nM.

Question: Which IC50 does the source give for CC(C)(C)c1ccc(C(=O)Nc2ccc(CC(=O)O)cc2)o1 here?
Answer: Its IC50 is under 160 nM.

Question: For O=C(Nc1ccc([N+](=O)[O-])cc1)C(=O)Nc1cccc(C(=O)O)c1, which IC50 is on record?
Answer: Its IC50 is 946 nM.

Question: With COc1cc(SC)ccc1C(=O)Nc1nc2ccccc2[nH]1 as the compound, how does the IC50 read?
Answer: The IC50 was under 160 nM.

Question: Cn1nccc1C(=O)NC1CCCc2c1cnn2-c1ccccc1F (stereo unspecified) was tested. Which IC50 did it give?
Answer: The IC50 was 56300 nM (inactive).

Question: Which IC50 does the source give for COc1cc(NC(=O)COc2cc(O)c3c(c2)OC(C)(C)CC3=O)cc(OC)c1OC here?
Answer: Its IC50 is 36900 nM (inactive).

Question: With CCOc1cc(S(=O)(=O)NCc2ccncc2)ccc1Cl as the compound, how does the IC50 read?
Answer: Its IC50 is > 80000 nM (inactive).
